Data published in the RepoRT retention time repository.

Assay: Waters ACQUITY UPLC BEH C18, 100 × 2.1 mm, 1.7 µm, 40 °C, 0.3 to 0.4 mL/min, estimated dead time 0.63 min; A: water + 0.1% formic acid; B: methanol + 0.1% formic acid; gradient (min/%B) 0/0.5 0.1/0.5 10/80 10.1/99.5 12/99.5
Settings: stereoisomer not certain

Structure (SMILES)	LC retention time [min]
COC1=CC2C3Cc4ccc(OC)c(O)c4C2(CCN3C)CC1=O (centres undefined)	3.03
NC(=O)CN1CC2CC(C1)c1cccc(=O)n1C2 (centres undefined)	2.18
O=c1c(O)c(-c2ccc(O)c(O)c2)oc2c(OC3OC(CO)C(O)C(O)C3O)c(O)cc(O)c12 (centres undefined)	4.64
O=C1CC(c2ccc(O)cc2)Oc2cc(O)cc(O)c21 (centres undefined)	5.95
COc1ccc(-c2coc3cc(OC4OC(CO)C(O)C(O)C4O)cc(O)c3c2=O)cc1 (centres undefined)	5.73
COc1c2c(cc3c1OCO3)CCN(C)C2	3.33
CC1OC(OC2C(CO)OC(OCC3OC(OC(=O)C45CCC(C)(C)CC4C4=CCC6C7(C)CCC(OC8OCC(O)C(O)C8OC8OC(C)C(O)C(O)C8O)C(C)(CO)C7CCC6(C)C4(C)CC5)C(O)C(O)C3O)C(O)C2O)C(O)C(O)C1O (centres undefined)	5.38
O=C1CC(c2ccc(O)c(O)c2)Oc2cc(O)cc(O)c21 (centres undefined)	5.35
COc1cc(C=CC(=O)OCC2OC(OC3C(c4c(O)cc5oc(-c6ccc(O)cc6)cc(=O)c5c4O)OC(CO)C(O)C3O)C(O)C(O)C2O)ccc1O (centres undefined)	4.21
CCC=CCC=CC=CC(CCCCCCCC(=O)O)OO (centres undefined)	6.77
CC(C)=CCCC(C)(OC1OC(COC2OC(CO)C(O)C(O)C2O)C(O)C(O)C1O)C1CCC2(C)C1C(O)CC1C3(C)CCC(OC4OC(CO)C(O)C(O)C4OC4OC(CO)C(O)C(O)C4O)C(C)(C)C3CCC12C (centres undefined)	5.88
O=C(O)CC(=O)OCC1OC(Oc2cc(O)c3c(=O)cc(-c4ccc(O)c(O)c4)oc3c2)C(O)C(O)C1O (centres undefined)	4.59
CC1CCC2(C(=O)OC3OC(COC4OC(CO)C(OC5OC(C)C(O)C(O)C5O)C(O)C4O)C(O)C(O)C3O)CCC3(C)C(=CCC4C5(C)CC(O)C(O)C(C)(CO)C5C(O)CC43C)C2C1C (centres undefined)	4.88
O=C(O)C=Cc1ccc(O)cc1	2.71
